Assay results: US7659400B2, “Radiolabelled benzamide analogues, their synthesis and use in diagnostic imaging” (Washington University, priority 2003, dated 2010)
Residue numbers refer to the chain shown, from its start. Several values for one entry are separate records, joined by “and”; a condition that tells them apart may be missing. Identical values can stand only once.

Key:
EMT-6 tumors = assay: Biodistribution of 18F-labeled ligands in mice bearing EMT-6 tumors; format: in vivo, female Balb/c mice
Procedure: This example illustrates in vivo evaluation of compounds of the present teachings. All animal experiments were conducted in compliance with the Guidelines for the Care and Use of Research Animals established by Washington University's Animal Studies Committee. EMT-6 mouse mammary adenocarcinoma cells (5×10^5 cells in 100 uL of phosphate-buffered saline) were implanted subcutaneously in the scapular region of female Balb/c mice (˜2-month old and 17-22 g; Charles River Laboratories). […] Groups of at least 4 mice were used for each time point. […] After counting, the percentage of the injected dose per gram of tissue (%ID/g) was calculated. The tumor/organ ratios were calculated by dividing the %ID/g of the tumor by the %ID/g of each organ.

σ2 receptors [1] = target: T1, σ2 receptors (Mus musculus, UniProt Q8VD00); assay: Blocking study: co-injection of 1 mg/kg YUN-143 in EMT-6 tumor-bearing mice; format: in vivo; settings: 1 mg/kg YUN-143, 1 h post-injection
T1 construct: from tissue; host or cells: EMT-6 tumours in female Balb/c mice, in vivo
T1 sequence (Q8VD00 1-176): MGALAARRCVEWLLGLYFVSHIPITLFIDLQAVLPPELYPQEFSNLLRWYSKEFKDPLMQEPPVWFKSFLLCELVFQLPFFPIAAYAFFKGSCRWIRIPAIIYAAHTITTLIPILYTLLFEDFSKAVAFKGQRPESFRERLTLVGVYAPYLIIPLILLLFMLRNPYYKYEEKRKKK
Procedure: These blocking studies in tumor-bearing mice were conducted by co-injecting 1 mg/kg of cold N-(4-fluorobenzyl) piperidinyl-4-(3-bromophenyl)acetamide (YUN-143) with [^18F]3c or [^18F]3f.

σ2 receptors [2] = target: T2, σ2 receptors (Rattus norvegicus, UniProt Q5U3Y7); assay: σ2 receptor binding assay, [^3H]DTG in the presence of (+)-pentazocine, rat liver membrane homogenates
T2 construct: conducted using rat liver membrane homogenates; from tissue; host or cells: rat liver membrane homogenates
T2 sequence (Q5U3Y7 1-176): T1 sequence (Q8VD00 1-176) with L4V, A5T, L26M, V33L, L71F, A105V, L118I, V127I, S136N, Y169F
Procedure: The incubation time was 120 min at room temperature. […] All other procedures were identical to those described for the σ1 receptor binding assay above.

[3] = Log D calculated using the program ACD/log D; settings: spacer group four carbons (3c) versus two carbons (3a)
σ1 receptors [4] = target: T3, σ1 receptors (Cavia porcellus, UniProt Q60492)
T3 sequence (Q60492 whole entry): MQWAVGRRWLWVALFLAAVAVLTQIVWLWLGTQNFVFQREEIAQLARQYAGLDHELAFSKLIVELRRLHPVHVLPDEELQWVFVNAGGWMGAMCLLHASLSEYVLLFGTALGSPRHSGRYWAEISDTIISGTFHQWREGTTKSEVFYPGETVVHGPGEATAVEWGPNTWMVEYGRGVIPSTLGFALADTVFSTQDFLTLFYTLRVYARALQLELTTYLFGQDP
Procedure: (§1) In these assays, the novel sigma ligands were dissolved in N,N-dimethylformamide (DMF), DMSO or ethanol, and then diluted in 50 mM Tris-HCl buffer containing 150 mM NaCl and 100 mM EDTA at pH 7.4 prior to performing the σ1 and σ2 receptor binding assays. […] The samples were harvested and filtered rapidly through a 96-well fiber glass filter plate (millipore, Billerica, Mass.) that had been presoaked with 100 μL of 50 mM Tris-HCl buffer at pH 8.0 for 1 h.
(§2) The Ki values were determine from Scatchard plots.

σ1 receptors [5] = target: T3, σ1 receptors; assay: σ1 receptor binding assay, [^3H](+)-pentazocine, guinea pig brain membrane homogenates; settings: spacer group four carbons (3c) versus two carbons (3a)
Procedure: as §1, §2

For `COc1cc2c(cc1OC)CN(CCCCNC(=O)c1cc(I)cc(OC)c1OCC[18F])CC2` [[^18F]3f], which “Biodistribution: blood” value (EMT-6 tumors; 5 min after i.v. injection) is on record?
The value was 1.82 ± 0.25 %ID/g.

What about the “Biodistribution: bone” value (EMT-6 tumors; 5 min after i.v. injection) of the same compound?
The value was 2.23 ± 0.56 %ID/g.

What about the “Biodistribution: brain” value (EMT-6 tumors; 5 min after i.v. injection) of the same compound?
Its value is 0.71 ± 0.09 %ID/g.

And the “Biodistribution: fat” value (EMT-6 tumors; 5 min after i.v. injection)?
Its value is 4.13 ± 0.86 %ID/g.

And the “Biodistribution: heart” value (EMT-6 tumors; 5 min after i.v. injection)?
The value was 5.60 ± 0.45 %ID/g.

And the “Biodistribution: kidney” value (EMT-6 tumors; 5 min after i.v. injection)?
The value was 19.98 ± 1.66 %ID/g.

And the “Biodistribution: liver” value (EMT-6 tumors; 5 min after i.v. injection)?
The value was 15.21 ± 2.21 %ID/g.

What about the “Biodistribution: lung” value (EMT-6 tumors; 5 min after i.v. injection) of the same compound?
Its value is 18.47 ± 3.07 %ID/g.

What about the “Biodistribution: muscle” value (EMT-6 tumors; 5 min after i.v. injection) of the same compound?
Its value is 2.50 ± 0.33 %ID/g.

And the “Biodistribution: tumor (tumor uptake)” value (EMT-6 tumors; 5 min after i.v. injection)?
Its value is 3.05 ± 0.43 %ID/g.

What about the “Biodistribution: blood” value (EMT-6 tumors; 30 min after i.v. injection) of the same compound?
Its value is 1.23 ± 0.28 %ID/g.

And the “Biodistribution: bone” value (EMT-6 tumors; 30 min after i.v. injection)?
Its value is 2.01 ± 0.53 %ID/g.

What about the “Biodistribution: brain” value (EMT-6 tumors; 30 min after i.v. injection) of the same compound?
Its value is 0.27 ± 0.04 %ID/g.

What about the “Biodistribution: fat” value (EMT-6 tumors; 30 min after i.v. injection) of the same compound?
The value was 1.36 ± 0.50 %ID/g.

And the “Biodistribution: heart” value (EMT-6 tumors; 30 min after i.v. injection)?
The value was 1.54 ± 0.31 %ID/g.

What about the “Biodistribution: kidney” value (EMT-6 tumors; 30 min after i.v. injection) of the same compound?
Its value is 7.73 ± 2.25 %ID/g.

And the “Biodistribution: liver” value (EMT-6 tumors; 30 min after i.v. injection)?
Its value is 10.73 ± 2.98 %ID/g.

What about the “Biodistribution: lung” value (EMT-6 tumors; 30 min after i.v. injection) of the same compound?
Its value is 3.75 ± 0.58 %ID/g.

What about the “Biodistribution: muscle” value (EMT-6 tumors; 30 min after i.v. injection) of the same compound?
Its value is 0.73 ± 0.14 %ID/g.

What about the “Biodistribution: tumor (tumor uptake)” value (EMT-6 tumors; 30 min after i.v. injection) of the same compound?
The value was 3.11 ± 0.16 %ID/g.

What about the “Biodistribution: tumor (tumor uptake)” value (EMT-6 tumors; 60 min (1 h) after i.v. injection) of the same compound?
The value was 2.15 %ID/g and 2.15 ± 0.25 %ID/g.

And the “Biodistribution: blood” value (EMT-6 tumors; 60 min after i.v. injection)?
The value was 0.65 ± 0.09 %ID/g.

And the “Biodistribution: bone” value (EMT-6 tumors; 60 min after i.v. injection)?
Its value is 0.93 ± 0.16 %ID/g.

And the “Biodistribution: brain” value (EMT-6 tumors; 60 min after i.v. injection)?
Its value is 0.14 ± 0.02 %ID/g.

What about the “Biodistribution: fat” value (EMT-6 tumors; 60 min after i.v. injection) of the same compound?
The value was 0.47 ± 0.07 %ID/g.

What about the “Biodistribution: heart” value (EMT-6 tumors; 60 min after i.v. injection) of the same compound?
Its value is 0.69 ± 0.06 %ID/g.

And the “Biodistribution: kidney” value (EMT-6 tumors; 60 min after i.v. injection)?
The value was 3.50 ± 0.80 %ID/g.

And the “Biodistribution: liver” value (EMT-6 tumors; 60 min after i.v. injection)?
Its value is 5.57 ± 0.31 %ID/g.

What about the “Biodistribution: lung” value (EMT-6 tumors; 60 min after i.v. injection) of the same compound?
The value was 1.51 ± 0.13 %ID/g.

What about the “Biodistribution: muscle” value (EMT-6 tumors; 60 min after i.v. injection) of the same compound?
Its value is 0.40 ± 0.07 %ID/g.

What about the “Biodistribution: tumor (tumor uptake)” value (EMT-6 tumors; 120 min (2 h) after i.v. injection) of the same compound?
Its value is 1.15 %ID/g and 1.15 ± 0.23 %ID/g.

And the “Biodistribution: blood” value (EMT-6 tumors; 120 min after i.v. injection)?
Its value is 0.28 ± 0.01 %ID/g.

What about the “Biodistribution: bone” value (EMT-6 tumors; 120 min after i.v. injection) of the same compound?
Its value is 0.59 ± 0.09 %ID/g.

What about the “Biodistribution: brain” value (EMT-6 tumors; 120 min after i.v. injection) of the same compound?
The value was 0.08 ± 0.01 %ID/g.

And the “Biodistribution: fat” value (EMT-6 tumors; 120 min after i.v. injection)?
Its value is 0.17 ± 0.05 %ID/g.

What about the “Biodistribution: heart” value (EMT-6 tumors; 120 min after i.v. injection) of the same compound?
Its value is 0.39 ± 0.04 %ID/g.

What about the “Biodistribution: kidney” value (EMT-6 tumors; 120 min after i.v. injection) of the same compound?
Its value is 1.34 ± 0.10 %ID/g.

What about the “Biodistribution: liver” value (EMT-6 tumors; 120 min after i.v. injection) of the same compound?
Its value is 2.61 ± 0.69 %ID/g.

What about the “Biodistribution: lung” value (EMT-6 tumors; 120 min after i.v. injection) of the same compound?
Its value is 0.74 ± 0.03 %ID/g.

What about the “Biodistribution: muscle” value (EMT-6 tumors; 120 min after i.v. injection) of the same compound?
Its value is 0.15 ± 0.01 %ID/g.

What about the “tumor:fat ratio” value (EMT-6 tumors; 2 h after i.v. injection) of the same compound?
Its value is ~7.

What about the “tumor:muscle ratio” value (EMT-6 tumors; 2 h after i.v. injection) of the same compound?
The value was ~8.

What about the “clearance from the blood (in words)” value (EMT-6 tumors; mouse, in vivo) of the same compound?
Its value is “rapid clearance from the blood”.

And the “decrease in the tumor:fat ratio on co-injection of YUN-143” value (σ2 receptors [1])?
Its value is ~50%.

What about the “decrease in the tumor:muscle ratio on co-injection of YUN-143” value (σ2 receptors [1]) of the same compound?
The value was ~50%.

With `COc1cc2c(cc1OC)CN(CCCCNC(=O)c1cc(C)ccc1OCCF)CC2` [compound 3c, N-[6,7-dimethoxy-3,4-dihydro-1H-isoquinolin-2-yl-butyl]-2-(2-fluoro-ethoxy)-5-methyl-benzamide] as the compound, how does the “σ1:σ2 Ratio” value (σ2 receptors [2]; ratio of Ki values) read?
Its value is 48.

What about the “increase in the affinity for σ2 receptors relative to 3a” value (σ2 receptors [2]; spacer group four carbons (3c) versus two carbons (3a)) of the same compound?
Its value is 15 fold.

And the “increase in the log D value relative to 3a” value [3]?
The value was 0.5 unit.

And the Ki (σ1 receptors [4])?
Its Ki is 330 ± 25 nM.

And the “increase in the affinity for σ1 receptors relative to 3a” value (σ1 receptors [5])?
The value was 69 fold.
